In ChEMBL document CHEMBL4732192, “Discovery and optimization of a novel CNS penetrant series of mGlu PAMs based on a 1,4-thiazepane core with in vivo efficacy in a preclinical Parkinsonian model” (Bioorg Med Chem Lett, 2021):
Values after ≈ are worked out from the molar mass of the structure shown.

Tests used:
[1] = target: Metabotropic glutamate receptor 4 (Rattus norvegicus) (UniProt P31423); test: Positive allosteric modulation of rat mGlu4 receptor expressed in HEK293 cells co- expressing GIRK channel by thallium mobilization assay relative to control; assay type: cell-based
Chain of Metabotropic glutamate receptor 4 (Rattus norvegicus) (P31423 whole entry): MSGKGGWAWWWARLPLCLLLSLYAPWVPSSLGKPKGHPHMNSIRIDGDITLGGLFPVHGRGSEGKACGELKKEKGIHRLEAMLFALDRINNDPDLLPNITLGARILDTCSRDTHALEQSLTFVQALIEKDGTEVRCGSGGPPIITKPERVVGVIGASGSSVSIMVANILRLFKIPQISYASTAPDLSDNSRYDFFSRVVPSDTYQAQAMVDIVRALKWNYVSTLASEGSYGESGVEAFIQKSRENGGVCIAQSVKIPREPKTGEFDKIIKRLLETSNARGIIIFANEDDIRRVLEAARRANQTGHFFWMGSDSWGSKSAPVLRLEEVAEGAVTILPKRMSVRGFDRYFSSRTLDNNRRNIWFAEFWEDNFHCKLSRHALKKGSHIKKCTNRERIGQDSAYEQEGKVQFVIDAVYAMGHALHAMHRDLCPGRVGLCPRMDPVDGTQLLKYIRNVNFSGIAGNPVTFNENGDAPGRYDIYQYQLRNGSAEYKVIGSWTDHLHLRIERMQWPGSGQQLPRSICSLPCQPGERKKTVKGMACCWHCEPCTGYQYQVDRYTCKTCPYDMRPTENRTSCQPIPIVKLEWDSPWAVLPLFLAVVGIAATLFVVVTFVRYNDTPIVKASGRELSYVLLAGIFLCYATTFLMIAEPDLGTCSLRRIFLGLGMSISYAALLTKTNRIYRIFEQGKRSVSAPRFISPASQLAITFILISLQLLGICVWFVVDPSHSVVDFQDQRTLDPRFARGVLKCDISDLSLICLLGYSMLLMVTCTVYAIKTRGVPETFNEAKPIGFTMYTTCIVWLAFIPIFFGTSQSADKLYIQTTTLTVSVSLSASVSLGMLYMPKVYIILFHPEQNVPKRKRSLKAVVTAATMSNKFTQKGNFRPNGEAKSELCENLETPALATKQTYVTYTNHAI

[2] = target: Metabotropic glutamate receptor 4 (Rattus norvegicus, UniProt P31423); test: Positive allosteric modulation of rat mGlu4 receptor expressed in HEK293 cells co- expressing GIRK channel by thallium mobilization assay; assay type: cell-based
Chain of Metabotropic glutamate receptor 4 (P31423 whole entry): as above

Rattus norvegicus [3] = test: Reversal of haloperidol-induced catalepsy in ip dosed Sprague-Dawley rat assessed as reduction in catalepsy measured after 15 mins relative to untreated control; assay type: functional; conditions: 0.25 h
Rattus norvegicus [4] = test: Reversal of haloperidol-induced catalepsy in ip dosed Sprague-Dawley rat assessed as latency time for withdrawl measured after 15 mins (reference value: 49.8 sec); assay type: functional; conditions: 0.25 h
[5] = Protein binding in human plasma assessed as unbound fraction; assay type: ADME, cell-free
[6] = Protein binding in rat plasma assessed as unbound fraction; assay type: ADME, cell-free
[7] = Protein binding in rat brain assessed as unbound fraction; assay type: ADME, tissue-based
[8] = Ratio of drug level in rat brain to plasma assessed as unbound permeability coefficient at 0.2 mg/kg, iv; assay type: ADME, organism-based; conditions: read-out: K(p,uu,brain)
[9] = Ratio of drug level in rat brain to plasma assessed as permeability coefficient at 0.2 mg/kg, iv; assay type: ADME, organism-based
Rattus norvegicus [10] = test: Reversal of haloperidol-induced catalepsy in Sprague-Dawley rat administered intraperitoneally and measured after 15 mins; assay type: functional, organism-based; conditions: dose 3-30 mg/kg
Rattus norvegicus [11] = test: Reversal of haloperidol-induced catalepsy in Sprague-Dawley rat assessed as reduction in catalepsy at 30 mg/kg, ip and measured after 15 mins relative to untreated control; assay type: functional; conditions: 0.25 h
[12] = target: Metabotropic glutamate receptor 3 (Homo sapiens, UniProt Q14832); test: Binding affinity to mGlu3 (unknown origin)
Chain of Metabotropic glutamate receptor 3 (Q14832 whole entry): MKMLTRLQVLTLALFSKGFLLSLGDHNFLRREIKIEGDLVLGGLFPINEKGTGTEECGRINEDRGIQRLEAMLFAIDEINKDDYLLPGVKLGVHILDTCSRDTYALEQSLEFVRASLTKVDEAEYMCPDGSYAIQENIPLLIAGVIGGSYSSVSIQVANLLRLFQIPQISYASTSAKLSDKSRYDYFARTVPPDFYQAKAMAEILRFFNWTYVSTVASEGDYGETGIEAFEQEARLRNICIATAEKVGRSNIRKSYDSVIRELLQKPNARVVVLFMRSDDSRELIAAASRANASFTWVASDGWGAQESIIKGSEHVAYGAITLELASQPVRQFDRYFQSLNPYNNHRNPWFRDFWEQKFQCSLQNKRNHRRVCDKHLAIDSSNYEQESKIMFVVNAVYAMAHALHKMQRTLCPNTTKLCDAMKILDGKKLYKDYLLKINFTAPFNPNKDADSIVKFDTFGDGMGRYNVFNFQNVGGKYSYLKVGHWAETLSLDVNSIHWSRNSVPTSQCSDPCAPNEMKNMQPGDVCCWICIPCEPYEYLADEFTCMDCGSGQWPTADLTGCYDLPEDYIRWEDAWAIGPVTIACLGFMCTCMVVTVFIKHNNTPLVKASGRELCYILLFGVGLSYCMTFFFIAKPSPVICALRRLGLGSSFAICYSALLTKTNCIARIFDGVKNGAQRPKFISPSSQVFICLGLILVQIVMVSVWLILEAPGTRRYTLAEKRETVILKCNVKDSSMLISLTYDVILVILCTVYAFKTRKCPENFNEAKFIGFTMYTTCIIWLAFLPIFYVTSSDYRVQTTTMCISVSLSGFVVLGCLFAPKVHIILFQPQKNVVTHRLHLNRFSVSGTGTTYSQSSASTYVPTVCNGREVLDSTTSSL

Rattus norvegicus [13] = test: Reversal of haloperidol-induced catalepsy in Sprague-Dawley rat assessed as latency time for withdrawl at 10 mg/kg, ip and measured after 15 mins (reference value: 49.8 sec); assay type: functional; conditions: 0.25 h
[14] = target: Metabotropic glutamate receptor 2 (Homo sapiens, UniProt Q14416); test: Displacement of [3H]LY341495 from full length human recombinant mGluR2 expressed in Chem-1 cells incubated for 60 mins by radiometric scintillation counting analysis; assay type: cell-based
Chain of Metabotropic glutamate receptor 2 (Q14416 whole entry): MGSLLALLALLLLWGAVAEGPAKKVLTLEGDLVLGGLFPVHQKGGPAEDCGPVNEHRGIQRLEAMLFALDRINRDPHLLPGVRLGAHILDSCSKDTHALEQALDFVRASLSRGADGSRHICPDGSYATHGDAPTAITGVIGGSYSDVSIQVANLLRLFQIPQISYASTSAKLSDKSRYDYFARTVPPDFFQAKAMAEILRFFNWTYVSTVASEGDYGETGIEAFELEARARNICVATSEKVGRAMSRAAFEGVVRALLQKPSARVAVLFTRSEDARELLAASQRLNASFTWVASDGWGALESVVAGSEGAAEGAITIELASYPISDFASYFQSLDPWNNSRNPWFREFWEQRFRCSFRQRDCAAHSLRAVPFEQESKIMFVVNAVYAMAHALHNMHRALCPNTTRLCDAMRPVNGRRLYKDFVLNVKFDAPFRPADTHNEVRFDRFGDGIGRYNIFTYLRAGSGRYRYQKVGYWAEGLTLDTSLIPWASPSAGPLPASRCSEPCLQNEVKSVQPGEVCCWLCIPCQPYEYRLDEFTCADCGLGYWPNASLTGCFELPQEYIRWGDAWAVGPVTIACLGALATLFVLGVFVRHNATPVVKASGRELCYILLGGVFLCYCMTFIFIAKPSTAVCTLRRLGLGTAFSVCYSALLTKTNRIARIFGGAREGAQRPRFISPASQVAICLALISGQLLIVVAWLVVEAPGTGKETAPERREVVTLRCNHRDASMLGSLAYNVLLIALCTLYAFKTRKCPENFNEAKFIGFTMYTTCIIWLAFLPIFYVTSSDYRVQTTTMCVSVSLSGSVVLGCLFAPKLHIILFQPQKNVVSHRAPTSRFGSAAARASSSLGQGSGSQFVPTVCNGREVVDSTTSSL

Rattus norvegicus [15] = test: Reversal of haloperidol-induced catalepsy in Sprague-Dawley rat assessed as reduction in catalepsy at 10 mg/kg, ip and measured after 15 mins relative to untreated control; assay type: functional; conditions: 0.25 h
[16] = target: Metabotropic glutamate receptor 1 (Rattus norvegicus, UniProt P23385); test: Displacement of [3H]quisqualate from mGluR1 from rat brain incubated for 60 mins by radiometric scintillation counting analysis; assay type: tissue-based
[17] = Kinetic solubility of compound; assay type: physicochemical; conditions: read-out: Kinetic_solubility
Rattus norvegicus [18] = test: Reversal of haloperidol-induced catalepsy in Sprague-Dawley rat assessed as latency time for withdrawl at 30 mg/kg, ip and measured after 15 mins (reference value: 49.8 sec); assay type: functional; conditions: 0.25 h
Rattus norvegicus [19] = test: Reversal of haloperidol-induced catalepsy in Sprague-Dawley rat assessed as latency time for withdrawl at 3 mg/kg, ip and measured after 15 mins (reference value: 49.8 sec); assay type: functional; conditions: 0.25 h
Rattus norvegicus [20] = test: Reversal of haloperidol-induced catalepsy in Sprague-Dawley rat assessed as reduction in catalepsy at 3 mg/kg, ip and measured after 15 mins relative to untreated control; assay type: functional; conditions: 0.25 h
[21] = target: Metabotropic glutamate receptor 7 (Homo sapiens, UniProt Q14831); test: Binding affinity to mGlu7 (unknown origin)
Chain of Metabotropic glutamate receptor 7 (Q14831 whole entry): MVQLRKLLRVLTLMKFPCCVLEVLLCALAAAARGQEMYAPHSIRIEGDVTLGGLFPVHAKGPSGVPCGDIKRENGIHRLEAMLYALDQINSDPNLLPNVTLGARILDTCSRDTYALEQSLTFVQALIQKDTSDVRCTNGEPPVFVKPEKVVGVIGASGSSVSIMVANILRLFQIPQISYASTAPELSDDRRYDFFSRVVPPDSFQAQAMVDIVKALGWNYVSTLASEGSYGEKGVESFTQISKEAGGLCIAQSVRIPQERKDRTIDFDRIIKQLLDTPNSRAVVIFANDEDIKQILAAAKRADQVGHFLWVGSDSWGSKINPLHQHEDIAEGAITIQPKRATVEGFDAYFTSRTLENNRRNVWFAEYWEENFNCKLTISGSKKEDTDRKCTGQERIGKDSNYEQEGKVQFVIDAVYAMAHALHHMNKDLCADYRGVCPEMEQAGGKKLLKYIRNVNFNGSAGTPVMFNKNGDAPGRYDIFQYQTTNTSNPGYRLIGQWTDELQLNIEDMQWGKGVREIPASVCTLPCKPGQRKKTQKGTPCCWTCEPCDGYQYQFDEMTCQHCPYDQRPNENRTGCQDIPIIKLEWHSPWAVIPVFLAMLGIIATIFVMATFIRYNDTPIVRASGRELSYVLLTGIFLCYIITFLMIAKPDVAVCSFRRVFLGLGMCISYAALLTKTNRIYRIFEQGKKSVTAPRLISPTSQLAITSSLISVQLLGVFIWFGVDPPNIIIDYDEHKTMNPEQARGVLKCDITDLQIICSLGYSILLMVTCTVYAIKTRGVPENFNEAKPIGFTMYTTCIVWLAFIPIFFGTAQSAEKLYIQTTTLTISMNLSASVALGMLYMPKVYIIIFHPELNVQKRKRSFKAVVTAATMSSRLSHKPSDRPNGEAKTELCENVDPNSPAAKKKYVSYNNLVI

[22] = target: Metabotropic glutamate receptor 5 (Homo sapiens, UniProt P41594); test: Binding affinity to mGlu5 (unknown origin)
Chain of Metabotropic glutamate receptor 5 (P41594 whole entry): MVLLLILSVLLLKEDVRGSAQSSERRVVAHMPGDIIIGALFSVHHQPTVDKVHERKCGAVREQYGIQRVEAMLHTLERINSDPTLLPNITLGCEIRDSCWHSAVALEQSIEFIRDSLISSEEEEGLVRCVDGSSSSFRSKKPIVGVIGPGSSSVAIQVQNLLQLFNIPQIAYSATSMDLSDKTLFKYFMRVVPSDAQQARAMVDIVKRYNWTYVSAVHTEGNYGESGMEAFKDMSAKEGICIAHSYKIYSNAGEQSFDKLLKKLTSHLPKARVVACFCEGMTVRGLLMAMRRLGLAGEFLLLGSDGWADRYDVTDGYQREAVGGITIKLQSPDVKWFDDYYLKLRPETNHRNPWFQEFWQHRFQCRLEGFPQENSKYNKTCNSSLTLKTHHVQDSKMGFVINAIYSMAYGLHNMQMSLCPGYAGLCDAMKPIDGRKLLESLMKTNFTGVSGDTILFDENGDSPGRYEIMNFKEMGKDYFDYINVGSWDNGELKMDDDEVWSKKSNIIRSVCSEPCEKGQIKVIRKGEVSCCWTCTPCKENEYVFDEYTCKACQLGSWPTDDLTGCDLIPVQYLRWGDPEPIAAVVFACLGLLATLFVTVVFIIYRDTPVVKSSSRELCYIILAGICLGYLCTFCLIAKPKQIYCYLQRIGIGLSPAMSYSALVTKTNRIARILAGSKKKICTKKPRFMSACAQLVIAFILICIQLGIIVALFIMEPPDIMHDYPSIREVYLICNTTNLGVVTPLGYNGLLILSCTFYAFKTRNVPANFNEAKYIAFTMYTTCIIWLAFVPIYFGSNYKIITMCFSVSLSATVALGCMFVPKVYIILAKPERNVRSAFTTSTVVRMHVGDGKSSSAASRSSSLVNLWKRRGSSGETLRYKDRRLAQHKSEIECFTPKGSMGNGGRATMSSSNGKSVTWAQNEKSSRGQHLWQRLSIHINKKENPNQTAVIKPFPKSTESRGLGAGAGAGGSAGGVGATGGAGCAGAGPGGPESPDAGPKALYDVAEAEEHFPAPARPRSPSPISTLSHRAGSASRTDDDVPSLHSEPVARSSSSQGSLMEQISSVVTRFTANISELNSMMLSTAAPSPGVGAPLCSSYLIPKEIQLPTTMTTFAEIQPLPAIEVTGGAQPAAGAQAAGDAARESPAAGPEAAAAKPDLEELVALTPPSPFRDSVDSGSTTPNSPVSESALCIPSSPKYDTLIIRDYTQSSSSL

[23] = filed as positive allosteric modulator

Row | %max [1, 23] [%] | EC50 [2] [nM] | Compound | further results
1 | 87 | 1090 | Cc1cc(Cl)cc(NC(=O)[C@@H]2CSCCC(=O)N2)c1 | –
2 | 98 | 64 | O=C1CCSC[C@H](C(=O)Nc2cc(Cl)cc(Br)c2)N1 | –
3 | 112 | 278 | O=C1CCSC[C@@H](C(=O)Nc2cc(F)cc(Cl)c2)N1 | –
4 | – | > 10000 | Cc1cc(C)cc(NC(=O)[C@@H]2CSCCC(=O)N2)c1 | %max [1]: < 30%
5 | 108 | 33 | O=C1CCSC[C@@H](C(=O)Nc2cc(Cl)cc(Br)c2)N1 | fraction unbound [5]: 0.011; fraction unbound [6]: 0.018; Kp uu [8]: 0.7; Activity (Rattus norvegicus [10]): Dose-dependent effect; inhibition in vivo at 30 mg/kg (Rattus norvegicus [11]): 55.4%; IC50 [12]: > 10000 nM; fraction unbound [7]: 0.028; Time (Rattus norvegicus [13]): 28.6 s; IC50 [14]: > 10000 nM; inhibition in vivo at 10 mg/kg (Rattus norvegicus [15]): 42.6%; Kp [9]: 0.45; IC50 [16]: > 10000 nM; solubility kinetic [17]: 6.2 µM (≈ 2.25 µg/mL); Time (Rattus norvegicus [18]): 22.2 s; Time (Rattus norvegicus [19]): 36.6 s; inhibition in vivo at 3 mg/kg (Rattus norvegicus [20]): 26.5%; IC50 [21]: > 10000 nM; IC50 [22]: > 10000 nM
6 | 88 | 273 | O=C1CCSC[C@@H](C(=O)Nc2cc(Cl)cc(Cl)c2)N1 | –

Continued, molecule first:

Row | Compound | %max [1, 23] [%] | EC50 [2] [nM] | further results
7 | O=C1CCSC[C@H](C(=O)Nc2cc(Br)cc(Br)c2)N1 | 104 | 76 | –
8 | Fc1ccc(Nc2n[nH]c3cccnc23)cc1Cl | – | – | inhibition (INH) (Rattus norvegicus [3]): 64%; Time (Rattus norvegicus [4]): 17.9 s
9 | O=C1CCSC[C@@H](C(=O)Nc2cc(F)cc(Br)c2)N1 | 101 | 351 | –
10 | O=C1CCSC[C@H](C(=O)Nc2cccc(Br)c2)N1 | – | > 30000 | –
11 | O=C1CCSC[C@@H](C(=O)Nc2cccc(Cl)c2)N1 | 120 | 148 | fraction unbound [5]: 0.03; fraction unbound [6]: 0.02; fraction unbound [7]: 0.01
12 | O=C1CCSC[C@@H](C(=O)Nc2cc(F)cc(I)c2)N1 | 102 | 558 | –
13 | O=C1CCSC[C@@H](C(=O)Nc2cc(Br)cc(Br)c2)N1 | 97 | 35 | fraction unbound [5]: 0.007; fraction unbound [6]: 0.011; Kp uu [8]: 0.1; fraction unbound [7]: 0.006; Kp [9]: 0.19
14 | O=C1CCSC[C@@H](C(=O)Nc2cc(C(F)(F)F)cc(C(F)(F)F)c2)N1 | 102 | 950 | –
15 | O=C1CCSC[C@@H](C(=O)Nc2cc(F)cc(F)c2)N1 | 102 | 8900 | –
16 | O=C1CCSC[C@@H](C(=O)Nc2cc(Br)cc(I)c2)N1 | 101 | 115 | –
17 | O=C(NC1CC(F)(F)C1)c1nsc2cc(Nc3n[nH]c4cccnc34)ccc12 | – | – | solubility kinetic [17]: 0.9 µM (≈ 0.36 µg/mL)
18 | O=C1CCSC[C@@H](C(=O)Nc2cccc(Br)c2)N1 | 98 | 6200 | –
